We go through three compounds from patent publication US9511196B2, “Systems and methods for promoting wound healing” (priority 2009, dated 2016).

SMILES strings stand for the structures. Like-named read-outs stand apart in the source and are kept apart here.

In data set [1] the test system is burn, excisional and surgical incisional wounds. The data set is described as follows: Wound healing time in rat wound models (burn, excisional, incisional; normal and diabetic). As to conditions: exogenous gas treatment. The data set is classed as in vivo. Here is the method:
(§1) Provided methods and apparatus were tested on second degree burn wounds (normal and diabetic), excisional wounds (normal and diabetic), and surgical incisional wounds (normal and diabetic) in rat models. Various treatment protocols were evaluated and dose and time dependent studies were carried out on normal excisional wounds to determine the [NO] and [ONOO^−] release profile using exogenous NO and CO.
It is believed that gasotransmitters NO, O2 and CO delivered locally to a wound site may influence the healing process via changing the NO/ONOO^− balance. […] As a result, there was a high formation of cytotoxic ONOO^−, which can contribute to wound healing impairment. Accordingly, wounds were exposed individually to either gaseous NO or CO using a modified gas delivery system surrounding an injured area. To determine the efficacy of gas therapy in restoring the NO/ONOO^− balance, treated wounds were subjected to NO and ONOO^− measurements. Also, eNOS and iNOS expression levels were determined using western blotting. Collagen formation and maturation, also wound contraction were investigated and compared to results of untreated wounds.

For another data set, the system named is normal excisional wounds. The data set is described as follows: Normal excisional wound: wound size after gas treatment. The data set is classed as in vivo, rat. As to conditions: 1000 ppm NO or 250 ppm CO, 15 minutes four times per day; for wound area shrunk to % of initial: day 3; for wound size/area as % of its starting point: day 10. Here is the method: as §1
(§2) All gas mixtures were prepared and stored in HandyGrab Tedlar gas sampling bag with capacity of 0.6 liter (Zefon International, St. Petersburg, Fla., cat#HG-PP-06) prior to each treatment. Static mixing with nitrogen as a diluting gas was performed. To prepare nitric oxide mixtures in nitrogen, a sample of 1000 ppm nitric oxide in nitrogen (Airgas Specialty Gases, Chicago, Ill.) was drawn with a 50 cubic centimeters (cc) disposable medical syringe and then transferred to a Tedlar bag through an injection port. Then the appropriate volume of nitrogen (Airgas Inc., Radur, Pa.) was delivered to the bag that was controlled by a Riteflow® flowmeter (Bel-Art Products, Pequannock, N.J.). The same technique was used to prepare carbon monoxide mixtures in nitrogen, but a 1 cc disposable medical syringe was used to dosage pure carbon monoxide (Air Products and Chemicals Inc., Parkersburg, W. Va.). To calculate the concentrations of mixed gases, the following Equation 2 was applied: Cppm=Vc/(Vc+Vd)×10^6·ppm (2) where Vc is the target gas volume and Vd is the dilutant volume.
(§3) Once the rats were prepared with a modified gas delivery system in place, 20 cm^3 of nitrogen was purged through whole gas capsule to remove air. Then 20 cm^3 of a therapeutic gas mixture was delivered in a medical syringe to a gas vent, and the gas vent was sealed. The wounds were exposed to gas mixtures for specified period of times (15 minutes to 1 hour). The treatment was repeated four times a day, while the rat was awake and fully ambulatory. Negative control wounds remained uncovered, allowing access of air to the wound site. Positive control wounds were exposed to pure nitrogen, which served as the diluting gas for every mixture prepared.
After a specified time interval (1 day, 3 days, 5 days, 7 days, 10 days), rats were again anesthetized with a mixture of ketamine (50 mg/kg I.M.) and xylazine (5 mg/kg I.M.). The gas delivery system was removed by applying few drops of Uni-Solve® (Smith & Nephew Inc. Largo, Fla. 33773), which enabled the removal of the gas delivery system from the skin. Wounds were then removed using a 6 mm in diameter biopsy punch (Miltex, Inc. York, Pa. cat #33-36). Removed wounds were immediately used to measure the NO and ONOO^− release or frozen in liquid nitrogen to be later subjected to hydroxyproline analysis and western blot analysis or embedded in TBS Tissue Frizzing Medium for histological analysis. After the wounded tissue was removed, the rats were euthanized by injecting pentothal at a dose of 150 mg/kg. The rats were then placed in cold storage in an animal care facility.
In FIG. 9, depicted are changes in wound size of a normal excisional wound after treatment with either NO or CO. The photographs were taken at 1, 3, 5, 7 and 10 days after wounding. Normal excisional wounds were treated with either 1000 ppm NO or 250 ppm of CO gas mixtures for 15 minutes four times per day with at least an hour break between treatments. A marker 305 was placed next to each excisional wound to show the size/area of the original wound. […] A very rapid drop in wound area was observed between the 5th and 7th day of healing. […] At day 10, the wound area/size had decreased to 31%+/−5% of its initial starting point. […] At day 3, the area of the NO treated wound had shrunk to 58±4.9%, and the area of gCO treated wound had shrunk to 63±5.7%, whereas the area of untreated wound decreased to 81±6.1%. By day 10 NO treated wounds were much smaller than the untreated wounds and had decreased in size/area to 15%+/−3.8% of its starting point.

Another data set relates to rat model of wound. The data set is classed as in vivo. Here is the method:
In vivo efficiency of the provided gas delivery system in the process of accelerating wound healing was also tested. For these experiments, a rat model of wound was studied. Indexes of post-ischemic injury included: morphometric analysis, tissue edema, using a laser rate of wound healing process, level of collagen, and breaking strength.

The conditions of data set [2]: inhaled for over 30 min; cited from earlier work.
Data set [3] concerns diabetic type I excisional wounds. The data set is described as follows: Type I diabetes model: excisional wound contraction after gas treatment. The data set is classed as in vivo, rat. As to conditions: for effect on diabetic wound contraction / wound area as % of its initial area / wound size as % of its starting point: 1000 ppm NO or 250 ppm CO, 15 minutes four times per day. Here is the method: Male Sprague-Dawley rats (body weight 400-450 g) were used for these studies, were kept in an animal care facility for 48 h at 21° C. in a temperature controlled room with a 12 h light/dark cycle and 30-70% air-changed humidity. Animals were allowed unlimited access to regular chow food and drinking water. Diabetes type I was induced in rats by injection of streptozotocin (STZ) (65 mg/kg in pH 4.5 citrate buffer, IP). To relieve the pain associated with the intraperitoneal streptozotocin injection, rats were first put under deep anesthesia by injecting (ketamine 50 mg/kg IM, xylazine 5 mg/kg, IM). Anesthesia levels were checked by corneal reflex and toe pinch, and sustained by additional injections of the ketamine and xylazine mixture. After 10 days of streptozotocin injections the blood glucose levels were measured to determine if the rats could be considered diabetic. If the blood glucose level was above 300 mg/dL, the rat was considered diabetic. Rats were fasted overnight before the glucose level was measured. After injecting anesthesia, the tip of the tail was sterilized by wiping it with 70% alcohol. Approximately 2 mm of the tail was cut off to withdraw a sample of blood (35 μl), and the tip was compressed for 45-60 seconds to stop the bleeding.
The diabetic rats were then anesthetized (if needed) with a mixture of ketamine (50 mg/kg I.M.) and xylazine (5 mg/kg I.M.) administered intraperitoneally. Once anesthetized, hair was removed from the rats' backs using an electric razor and the backs of the rat were subsequently wiped with a 70% ethyl alcohol swab. On either side of the midline of the rat's back, four excision wounds were made with a sterile about 5 mm in diameter Biopsy Punch (Miltex, Inc. York, Pa. cat#33-35). The resulting wounds were approximately 4 mm deep and were deprived of epidermis, dermis and subcutaneous fat. Immediately after wounding, the gasket of an exemplary gas delivery system as disclosed herein was bonded to the skin area surrounding each treated wound by means of a thin layer of Skin-Bond® Cement (Smith & Nephew Inc. Largo, Fla. 33773).
After the surgery and during the recovery period from anesthesia, rats were turned from side to side to avoid pulmonary edema and to ensure unobstructed breathing. The rats were transferred to cages lined with sterile drape and contained moist food. To minimize any stress associated with pain, the rats were injected subcutaneously with analgesic (Butorphanol 1-2 mg/kg) every four hours for a maximum period of 2 days. Additionally, 1-2 ml of warm sterile saline/100 g of body weight was injected subcutaneously during the recovery period to prevent dehydration. Once the rats were completely awake, they were placed in cages with free access to food and drinking water. During the postoperative care period, rats were monitored for signs of infection, or self inflicted trauma. Additionally food and water intake was monitored. The diabetic rats were subjected to treatment as described below.
as §2, with “To calculate the concentrations of mixed gases, the following Equation 2 was applied: Cppm=Vc/(Vc+Vd)×10^6·ppm (2) where Vc is the target gas volume and Vd is the dilutant volume.” left out

Another data set concerns 2nd degree burn wounds. As to the kind of experiment: Burn wound model: change in burn wound area after gas treatment. The following applies: 1000 ppm NO or 250 ppm CO, 15 minutes four times per day; for effect on burn healing compared to untreated burn wound: 10 days. It counts as in vivo, rat. How it is done:
Similar to the rats used for the type I diabetic model, Rats were anesthetized with the mixture of ketamine 50 mg/kg IM and xylazine 5 mg/kg IM administered intraperitoneally. Anesthesia levels were maintained by additional injections of this mixture as needed. Each rat was allowed to breathe spontaneously. Hair was removed from the rats' backs and the backs of the rat were subsequently wiped with 70% ethanol. The standard rat burn model was used in which burns are produced by hot metal used as a heat source. A customized soldering iron was used to cause superficial dermal second-degree burns on. the backs of the rats. […] It was heated to 80° C. and applied to the skin for 10 seconds, which caused second degree burns. Immediately after wounding, the gasket of an exemplary gas delivery system as disclosed herein was bonded to the skin area surrounding each treated wound by means of a thin layer of Skin-Bond® Cement (Smith & Nephew Inc. Largo, Fla. 33773). The animals were then transferred to individual cages for recovery. Rats received an analgesic (Butorphanol 1-2 mg/kg) injected subcutaneously every four hours for a maximum period of 2 days. To prevent dehydration, 1-2 ml of warm sterile saline/100 g of body weight was injected subcutaneously during the recovery period. The treatment procedures described in more detail below were executed in the same way for the burn wound model as the diabetic wound model. After a certain time period, the rats were again anesthetized using the procedure described above and the wounded skin was taken from the backs of these rats for analysis. Then rats were then euthanized with pentothal (150 mg/kg) injected intraperitoneally.
as §2
as §3, with “prepared. […]” for “prepared.”

The mark [4] stands for this setting: about 50-1000 ppm NO, about 50-250 ppm CO, about 100% O2.

Take `[C-]#[O+]` [CO, carbon monoxide]: the “decreased wound healing time (versus control, untreated)” value in data set [1] is on record as “at least 20%”. For the same compound, in the data set with normal excisional wounds, the “effect on normal excisional wound contraction” value was “accelerated wound contraction and resulted in a significant decrease in wound size”; the “wound area shrunk to % of initial” value came to 63±5.7%; the “wound size/area as % of its starting point” value was 22.2%+/−3.3. In addition, the “wound healing in a single gas treatment” value with rat model of wound (setting [4]) is listed as “good results”. Further, the “concentration believed to be dangerous when inhaled” value in data set [2] is listed as “higher than 1500 ppm”. Besides, the “effect on diabetic wound contraction” value in data set [3] is recorded as “some influence on wound contraction”. The “wound area as % of its initial area” value in data set [3] (day 5) came out at 82.6±3.7%. Besides, the “wound size as % of its starting point” value in data set [3] (day 10) was 41.4%+/−2.8. In addition, the “effect on burn healing compared to untreated burn wound” value with 2nd degree burn wounds is “reduced swelling and accelerated burn healing process”. The “increase of burn wound area” value in the data set with 2nd degree burn wounds (day 10) is listed as “roughly 67.1%+/−3.5”.
On to `[N]=O` [NO, nitric oxide], for which, in data set [1], the “decreased wound healing time (versus control, untreated)” value was 30-50%. Besides, in the data set on normal excisional wounds, the “effect on normal excisional wound contraction” value was “accelerated wound contraction and resulted in a significant decrease in wound size”; the “wound area shrunk to % of initial” value came out at 58±4.9%; the “wound size/area as % of its starting point” value was 15%+/−3.8. In addition, the “wound healing in a single gas treatment” value in the data set with rat model of wound (setting [4]) is “good results”. Further, in data set [2], the “concentration believed to be dangerous when inhaled” value was greater than 500 ppm. Also, the “effect on diabetic wound contraction” value in data set [3] is “accelerated wound contraction and stimulated wound repair”. Besides, the “wound area as % of its initial area” value in data set [3] (day 7) is on record as 57.8±3.1%. Moreover, in data set [3] (day 10), the “size difference between treated and untreated diabetic excisional wounds” value is recorded as roughly 17%; the “wound size as % of its starting point” value is 29.8%+/−2.5. Besides, the “effect on burn healing compared to untreated burn wound” value in the data set with 2nd degree burn wounds was “reduced swelling and accelerated burn healing process”. In the data set with 2nd degree burn wounds (day 3), the “increase of burn wound area” value was 76.3±4.2%. For the same compound, in the data set on 2nd degree burn wounds (day 10), the “increase of burn wound area” value is “roughly 58.0%+/−3.1”.
On to `O=O` [O2, Oxygen], for which the “wound healing in a single gas treatment” value with rat model of wound (rat, in vivo) is “good results”.
